Source: ChEMBL document CHEMBL2448811, “Comparison of the accuracy of experimental and predicted pKa values of basic and acidic compounds” (Pharm Res, 2013)

Test: physchem

Compound | pKa
CCCCCCCC(=O)OC(CC(=O)[O-])C[N+](C)(C)C (stereo not given) | 3.6
CCCCCCCCCC(=O)OC(CC(=O)[O-])C[N+](C)(C)C (stereo not given) | 3.65
Nc1ccc(C(=O)O)cc1 [AMINOBENZOIC ACID] | 4.87
CCCC(=O)OC(CC(=O)[O-])C[N+](C)(C)C (stereo not given) [Butyryl-carnitine] | 3.56
Cc1ncc(CO)c(CN)c1O [PYRIDOXAMINE] | 10.3
